# Laboratory results from patent US20250296953A1, “3,4-THIAZOLO-STEROIDS AND METHODS OF MAKING AND USING THE SAME” (Arkansas State University - Jonesboro, priority 2018, published 2025).
# How the values were obtained:
# [1] = test system: SF-539; experiment: NCI 60 one dose screen; type: cell-based, human; settings: one dose; CNS Cancer; SF-539
# [2] = test system: SK-MEL-28; experiment: Melanoma cytotoxicity assay (resazurin); type: cell-based; settings: SK-MEL-28 melanoma cells, resazurin; for SK-MEL-28 (% inhibition): 24 hours with compound, concentration not given
# Summary of the method: (§1)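 ~4000 cells/well seeded 24 h, then compound added in triplicate for 24 h at 37° C, 5% CO2. Resazurin added for 6 h; fluorescence at 544/590 nm, background-subtracted and normalised to DMSO wells as % viability; IC50 from sigmoidal fit of serial dilutions.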
# [3] = test system: SK-MEL-25; experiment: Melanoma cytotoxicity assay (resazurin); type: cell-based; settings: SK-MEL-25 melanoma cells, resazurin; for SK-MEL-25 (% inhibition): 24 hours with compound, concentration not given
# Summary of the method: as §1
# [4] = test system: HCT-15 (Colon Cancer); experiment: NCI 60 one dose screen; type: cell-based, human
# [5] = test system: SF-295; experiment: NCI 60 one dose screen; type: cell-based, human; settings: one dose; CNS Cancer; SF-295
# [6] = test system: 60 different human tumor cell lines; experiment: NCI Development Therapeutics Program 60 cell line screen, one dose; type: cell-based
# [7] = Non-small Cell Lung Cancer, A549/ATCC
# [8] = Non-small Cell Lung Cancer, EKVX
# [9] = Non-small Cell Lung Cancer, HOP-62
# [10] = Non-small Cell Lung Cancer, HOP-92
# [11] = Non-small Cell Lung Cancer, NCI-H23
# [12] = Non-small Cell Lung Cancer, NCI-H226
# [13] = Non-small Cell Lung Cancer, NCI-H322M
# [14] = Non-small Cell Lung Cancer, NCI-H460
compound,measurement,setting,value
"C[C@]12CCc3sc(Nc4ccc(OC(F)(F)F)cc4)nc3C1=CC[C@@H]1[C@@H]2CC[C@]2(C)C(=O)CC[C@@H]12 [IIa.19, (1S,2R,13R,14S,18S)-2,18-dimethyl-7-[4-(trifluoromethoxy)anilino]-6-thia-8-azapentacyclo[11.7.0.02,10.05,9.014,18]icosa-5(9),7,10-trien-17-one]",Growth Percent,[1],−5.40%
same,SK-MEL-28 (% inhibition),[2],97%
same,SK-MEL-25 (% inhibition),[3],24%
same,Growth Percent,[4],38.33%
same,Growth Percent,[5],−2.71%
same,Growth Percent,"[6]; Breast Cancer, BT-549",53.50%
same,Growth Percent,"[6]; Breast Cancer, HS 578T",38.46%
same,Growth Percent,"[6]; Breast Cancer, MCF7",17.08%
same,Growth Percent,"[6]; Breast Cancer, MDA-MB-231/ATCC",73.45%
same,Growth Percent,"[6]; Breast Cancer, MDA-MB-468",69.12%
same,Growth Percent,"[6]; Breast Cancer, T-47D",41.82%
same,Growth Percent,"[6]; CNS Cancer, SF-268",68.55%
same,Growth Percent,"[6]; CNS Cancer, SNB-19",56.49%
same,Growth Percent,"[6]; CNS Cancer, SNB-75",68.60%
same,Growth Percent,"[6]; CNS Cancer, U251",34.08%
same,Growth Percent,"[6]; Colon Cancer, COLO 205",67.03%
same,Growth Percent,"[6]; Colon Cancer, HCC-2998",96.47%
same,Growth Percent,"[6]; Colon Cancer, HCT-116",7.77%
same,Growth Percent,"[6]; Colon Cancer, HT29",12.95%
same,Growth Percent,"[6]; Colon Cancer, KM12",53.51%
same,Growth Percent,"[6]; Colon Cancer, SW-620",43.34%
same,Growth Percent,"[6]; Leukemia, CCRF-CEM",5.05%
same,Growth Percent,"[6]; Leukemia, HL-60(TB)",43.98%
same,Growth Percent,"[6]; Leukemia, K-562",8.20%
same,Growth Percent,"[6]; Leukemia, MOLT-4",4.15%
same,Growth Percent,"[6]; Leukemia, RPMI-8226",2.88%
same,Growth Percent,"[6]; Leukemia, SR",16.86%
same,Growth Percent,"[6]; Melanoma, LOX IMVI",34.82%
same,Growth Percent,"[6]; Melanoma, M14",83.90%
same,Growth Percent,"[6]; Melanoma, MALME-3M",76.83%
same,Growth Percent,"[6]; Melanoma, MDA-MB-435",77.59%
same,Growth Percent,"[6]; Melanoma, SK-MEL-2",61.81%
same,Growth Percent,"[6]; Melanoma, SK-MEL-5",95.89%
same,Growth Percent,"[6]; Melanoma, SK-MEL-28",65.29%
same,Growth Percent,"[6]; Melanoma, UACC-62",63.42%
same,Growth Percent,"[6]; Melanoma, UACC-257",84.04%
same,Growth Percent,[6]; [7],67.03%
same,Growth Percent,[6]; [8],78.41%
same,Growth Percent,[6]; [9],80.02%
same,Growth Percent,[6]; [10],74.98%
same,Growth Percent,[6]; [11],75.47%
same,Growth Percent,[6]; [12],74.91%
same,Growth Percent,[6]; [13],77.29%
same,Growth Percent,[6]; [14],53.27%
same,Growth Percent,"[6]; Ovarian Cancer, IGROV1",93.62%
same,Growth Percent,"[6]; Ovarian Cancer, NCI/ADR-RES",81.59%
same,Growth Percent,"[6]; Ovarian Cancer, OVCAR-3",37.42%
same,Growth Percent,"[6]; Ovarian Cancer, OVCAR-4",63.99%
same,Growth Percent,"[6]; Ovarian Cancer, OVCAR-5",91.93%
same,Growth Percent,"[6]; Ovarian Cancer, OVCAR-8",66.51%
same,Growth Percent,"[6]; Ovarian Cancer, SK-OV-3",69.90%
same,Growth Percent,"[6]; Prostate Cancer, DU-145",66.11%
same,Growth Percent,"[6]; Prostate Cancer, PC-3",38.59%
same,Growth Percent,"[6]; Renal Cancer, 786-0",30.50%
same,Growth Percent,"[6]; Renal Cancer, A498",75.00%
same,Growth Percent,"[6]; Renal Cancer, ACHN",71.59%
same,Growth Percent,"[6]; Renal Cancer, CAKI-1",60.44%
same,Growth Percent,"[6]; Renal Cancer, RXF 393",−32.25%
same,Growth Percent,"[6]; Renal Cancer, SN12C",71.17%
same,Growth Percent,"[6]; Renal Cancer, TK-10",98.20%
same,Growth Percent,"[6]; Renal Cancer, UO-31",54.33%
"(1S,2R,13R,14S,18S)-7-(3-fluoroanilino)-2,18-dimethyl-6-thia-8-azapentacyclo[11.7.0.02,10.05,9.014,18]icosa-5(9),7,10-trien-17-one [IIa.8]",Growth Percent,[1],−5.93%
same,SK-MEL-28 (% inhibition),[2],90%
same,IC50,[2]; 24 hours,> 20 µM
same,SK-MEL-25 (% inhibition),[3],88%
same,IC50,"[3]; 24 hours, read-out: SK-MEL-25 (IC50)",10 µM
same,Growth Percent,[4],6.88%
same,Growth Percent,[5],−18.79%
same,Growth Percent,"[6]; Breast Cancer, BT-549",−8.61%
same,Growth Percent,"[6]; Breast Cancer, HS 578T",35.44%
same,Growth Percent,"[6]; Breast Cancer, MCF7",4.46%
same,Growth Percent,"[6]; Breast Cancer, MDA-MB-231/ATCC",38.20%
same,Growth Percent,"[6]; Breast Cancer, MDA-MB-468",−2.99%
same,Growth Percent,"[6]; Breast Cancer, T-47D",−0.76%
same,Growth Percent,"[6]; CNS Cancer, SF-268",55.66%
same,Growth Percent,"[6]; CNS Cancer, SNB-19",62.83%
same,Growth Percent,"[6]; CNS Cancer, SNB-75",18.66%
same,Growth Percent,"[6]; CNS Cancer, U251",15.66%
same,Growth Percent,"[6]; Colon Cancer, COLO 205",47.59%
same,Growth Percent,"[6]; Colon Cancer, HCC-2998",75.50%
same,Growth Percent,"[6]; Colon Cancer, HCT-116",−68.78%
same,Growth Percent,"[6]; Colon Cancer, HT29",−3.32%
same,Growth Percent,"[6]; Colon Cancer, KM12",38.74%
same,Growth Percent,"[6]; Colon Cancer, SW-620",4.62%
same,Growth Percent,"[6]; Leukemia, CCRF-CEM",4.95%
same,Growth Percent,"[6]; Leukemia, HL-60(TB)",8.58%
same,Growth Percent,"[6]; Leukemia, K-562",−0.51%
same,Growth Percent,"[6]; Leukemia, MOLT-4",−3.78%
same,Growth Percent,"[6]; Leukemia, RPMI-8226",−22.26%
same,Growth Percent,"[6]; Leukemia, SR",−11.87%
same,Growth Percent,"[6]; Melanoma, LOX IMVI",6.22%
same,Growth Percent,"[6]; Melanoma, M14",44.82%
same,Growth Percent,"[6]; Melanoma, MALME-3M",22.82%
same,Growth Percent,"[6]; Melanoma, MDA-MB-435",35.93%
same,Growth Percent,"[6]; Melanoma, SK-MEL-2",21.81%
same,Growth Percent,"[6]; Melanoma, SK-MEL-5",32.06%
same,Growth Percent,"[6]; Melanoma, SK-MEL-28",39.44%
same,Growth Percent,"[6]; Melanoma, UACC-62",37.50%
same,Growth Percent,"[6]; Melanoma, UACC-257",73.04%
same,Growth Percent,[6]; [7],35.39%
same,Growth Percent,[6]; [8],46.43%
same,Growth Percent,[6]; [9],20.40%
same,Growth Percent,[6]; [10],68.93%
same,Growth Percent,[6]; [11],55.09%
same,Growth Percent,[6]; [12],71.91%
same,Growth Percent,[6]; [13],55.83%
same,Growth Percent,[6]; [14],51.98%
same,Growth Percent,"[6]; Ovarian Cancer, IGROV1",60.02%
same,Growth Percent,"[6]; Ovarian Cancer, NCI/ADR-RES",55.43%
same,Growth Percent,"[6]; Ovarian Cancer, OVCAR-3",−5.24%
same,Growth Percent,"[6]; Ovarian Cancer, OVCAR-4",59.21%
same,Growth Percent,"[6]; Ovarian Cancer, OVCAR-5",65.53%
same,Growth Percent,"[6]; Ovarian Cancer, OVCAR-8",39.56%
same,Growth Percent,"[6]; Ovarian Cancer, SK-OV-3",−18.44%
same,Growth Percent,"[6]; Prostate Cancer, DU-145",17.23%
same,Growth Percent,"[6]; Renal Cancer, 786-0",−13.93%
same,Growth Percent,"[6]; Renal Cancer, A498",22.95%
same,Growth Percent,"[6]; Renal Cancer, ACHN",1.56%
same,Growth Percent,"[6]; Renal Cancer, CAKI-1",50.45%
same,Growth Percent,"[6]; Renal Cancer, RXF 393",−28.44%
same,Growth Percent,"[6]; Renal Cancer, SN12C",28.50%
same,Growth Percent,"[6]; Renal Cancer, TK-10",20.27%
same,Growth Percent,"[6]; Renal Cancer, UO-31",−26.89%
